In PMC9586926, “An efflux-susceptible antibiotic-adjuvant with systemic efficacy against mouse infections” (Scientific Reports, 2022):
Where a SMILES comes first, the peptide text is derived from it. [ ]: non-standard residue; d: D form. The star is where a group is joined. 12Ado = NCCCCCCCCCCCC(=O)O; Decanoyl = CCCCCCCCCC(=O)*; Dab = NCC[C@H](N)C(=O)O

What was measured:
K. pneumoniae = experiment: MIC, broth microdilution; format: cell-based, Klebsiella pneumoniae; conditions: broth microdilution in LB, 18–24 h, 37 °C; n = 2 strains
Source text: (§1) Bacteria used in this study consisted of standard American Type Culture Collection (ATCC; Biological Industries, Beit Haemek, Israel) strains, clinically isolated (CI; Sourasky Medical Center, Tel Aviv, Israel) strains, as well as isogenic mutant strains. Gram-negative bacteria included Acinetobacter baumannii ATCC 19606; Escherichia coli ATCC 25922, 35218, CFT073, CI 14384, 16327, and the isogenic pair Ag100 (wild-type) and its efflux deficient mutant Ag100a (ΔacrAB); Klebsiella pneumoniae CI 1287, 224; Pseudomonas aeruginosa ATCC 27853, CI 1278, 8634; Salmonella enterica serovar Typhimurium ATCC 14028 (wild-type) and its isogenic efflux deficient mutant ΔacrAB. Bacteria were grown in Luria–Bertani broth (LB; 5 g/l NaCl, 5 g/l yeast extract, 10 g/l tryptone; pH = 7.0) at 37 °C with shaking. Over-night cultures were diluted 10-folds into fresh growth-medium and incubated at 37 °C with shaking until reaching mid-logarithmic phase. Then, bacterial concentrations were adjusted using O.D.600 nm measurements, and bacteria were subjected to the experimental procedures listed herein.
(§2) MIC was determined according to the broth microdilution method: antimicrobials were subjected to serial twofold dilutions in LB medium, and incubated with 5 × 10^5 CFU/ml of bacteria (final volume of 200 µl) for 18–24 h at 37 °C. Then, O.D.620 nm was measured (BioTek Instruments Synergy HT; Winooski, VT, USA), and the MIC was defined as the lowest antimicrobial concentration for which no increase in O.D.620 nm was evident, compared to the untreated control.

E. coli 25922 = experiment: Outer membrane permeabilization, NPN fluorescence; format: cell-based, Escherichia coli
Procedure: Lipopeptides ability to permeabilize the OM was evaluated using fluorescent measurements of N-phenyl-1-naphthylamine (NPN)[67]. 200 µl of an over-night culture were diluted into 10 ml of fresh LB medium and incubated at 37 °C with shaking until reaching O.D.600 nm = 0.5. The culture was then centrifuged at 10,000 RCF for 3 min, the supernatant aspirated, and the pellet resuspended in equal volume of 5 mM HEPES containing 5 mM glucose (pH = 7.2). This suspension was then mixed with NPN (5 mM in acetone) to reach a final NPN concentration of 10 µM. Then, 190 µl of this mixture were dispensed into black microtiter plates, mixed with 10 µl of HEPES containing serial twofold dilutions of lipopeptides and fluorescence (excitation: 360 nm; emission: 460 nm) was recorded immediately for up to 10 min at 37 °C with shaking[29] (BioTek Instruments Synergy HT; Winooski, VT, USA). In a modified version of this assay, in which efflux was inhibited, bacteria (similarly prepared) were incubated with the lipopeptides in presence or absence of 100 µM CCCP for 5 min. Samples were then twice centrifuged at 10,000 RCF for 3 min, the supernatant aspirated, and the pellet resuspended in equal volume of 5 mM HEPES containing 20 mM glucose (pH = 7.2), so as to re-energize the efflux machinery. NPN was then added (final concentration of 10 µM) and fluorescence was recorded immediately thereafter.

K. pneumoniae 1287 = experiment: Combination with antibiotics, modified checkerboard titration; format: cell-based, Klebsiella pneumoniae
Procedure: as §2
Lipopeptides and antibiotics combinations were assessed using a modified version of the checkerboard titration method: Antibiotics MIC was determined in LB medium containing sub-inhibitory lipopeptide concentrations. The sensitization factor (SF)[46] was then calculated by SF = MICA/MICC, where “MICA” is the antibiotic MIC in absence of an adjuvant and “MICC “ is the antibiotic MIC in presence of an adjuvant, for a specified adjuvant concentration. Combinations were classified as synergistic when antibiotics MIC were decreased by > 4 folds. Alternatively, the fractional inhibitory concentration index (FICI) was calculated by FICI = MICC1/MICA1 + MICC2/MICA2, where “MICC1” and “MICC2” respectively specify the antibiotic and the adjuvant MIC values upon their combination, whereas “MICA1” and “MICA2” respectively specify the antibiotic and the adjuvant MIC values when tested individually. Combinations were classified as synergistic for FICI < 0.5.

[1] = Binding to lipopolysaccharide, displacement of mono-dansylated polymyxin B; set-up: species or system E. coli; conditions: 2 µM DPMB, 3 µg/ml LPS, 1.5 h, compared with PMB; two independent experiments
Procedure: Affinity to lipopolysaccharide (LPS) was assessed using fluorescent measurements of displaced mono-dansylated polymyxin B (DPMB)[68]. 180 µl of 5 mM HEPES containing 2 µM DPMB and 3 µg/ml LPS (from E. coli) were dispensed into black microtiter plates and mixed with 20 µl of HEPES containing serial twofold dilutions of lipopeptides. Plates were incubated in the dark for 1.5 h at room-temperature and fluorescence (excitation: 340 nm; emission: 485 nm) was recorded immediately thereafter (BioTek Instruments Synergy HT; Winooski, VT, USA).

HEK-293FT = experiment: Cytotoxicity, Alamar blue; format: cell-based, human; conditions: 24 h incubation, read-out: IC50 HEK-293FT (50% inhibition of cells respiration)
Procedure: Cell lines used in this study included murine RAW 264.7 macrophages and human embryonic kidney HEK-293FT cells (ATCC, Biological Industries, Beit Haemek, Israel). Cells were grown in Dulbecco’s modified eagle medium (DMEM) containing […] glucose, L-glutamine, sodium bicarbonate and sodium pyruvate, supplemented with 10% fetal bovine serum and pen-strep, at 37 °C and 5% CO2.
Lipopeptides cytotoxicity was determined using fluorescent measurements of reduced resazurin. 2 × 10^4 cells were first cultured in 96-well plates over-night (final volume of 100 µl) at 37 °C and 5% CO2. Then, the medium was removed and cells were incubated for an additional 24 h with serial twofold dilutions of the lipopeptides in growth medium. Then, 10 µl of Alamar blue were added and plates were incubated for 3 h, after which fluorescence (excitation: 530 nm; emission: 590 nm) of the reduced resazurin was recorded (BioTek Instruments Synergy HT; Winooski, VT, USA).

E. coli = experiment: MIC, broth microdilution; format: cell-based, Escherichia coli; conditions: broth microdilution in LB, 18–24 h, 37 °C; n = 4 strains; published data in bold (not discernible)
Source text: as §1, §2

murine RBC = experiment: Hemolysis; format: cell-based; conditions: 1% hematocrit murine RBC, 3 h, 37 °C
Procedure: Permeabilization of red blood cells (RBC) was evaluated using absorbance measurements of extracellular hemoglobin. Serial twofold dilutions of lipopeptides were incubated with 1% hematocrit of murine RBC for 3 h at 37 °C with shaking. Samples were then centrifuged at 20,000 RCF for 5 min, and absorbance of the supernatants was measured at 450 nm (BioTek Instruments Synergy HT; Winooski, VT, USA). Percent hemolysis was then calculated by (AS − AN)/(AP − AN) × 100; where AS, AN, and AP represent the absorbance of the sample, negative control (PBS) and positive control (Milli-Q water), respectively. LC50 values were extracted from trend-lines generated for linear-regions of plots correlating lipopeptide concentrations and percent hemolysis.

CCCCCCCCCC(=O)N[C@@H](CCN)C(=O)N[C@@H](CCN)C(=O)NCCCCCCCCCCCC(=O)N[C@@H](CCN)C(N)=O [C10BBc12B, decanoyl-bis.diaminobutyrate-aminododecanoyl-diaminobutyrate-amide] (Decanoyl-[Dab][Dab][12Ado][Dab]-NH2)
MIC K. pneumoniae (n=2) (K. pneumoniae): > 50 µM
reduction of NPN fluorescence by 10 mM MgCl2 (E. coli 25922): almost complete
sensitization efficiency to rifampin (K. pneumoniae 1287): 130,000 folds
displacement of LPS-bound DPMB [1]: inferior ability
IC50 (HEK-293FT): > 50 µM
MIC E. coli (n=4) (E. coli): 50 µM
LC50 Erythrocytes (50% hemolysis) (murine RBC): > 50 µM
